For the experiment, the target named is T1, GPR40 (Homo sapiens, UniProt O14842).
T1 construct: expressed in transfected cells; host or cells: HEK293 cells stably expressing GPR40 (Hygromycin selection)
The experiment can be described thus: IP1 accumulation assay in HEK293 cells stably expressing GPR40. It is filed as cell-based. A digest of the protocol: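 HEK293 cells stably expressing human GPR40 were incubated with compounds (10-point, 3-fold dilution series) for 2 h at 37 °C, then IP1 was detected by HTRF (665/615 nm ratio). Effect was normalised to DMSO blank and AMG-1638 as 100%, and EC50 was derived from dose curves.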

Setting [1] is: IP1 accumulation, HEK293 cells stably expressing GPR40, 2 hours at 37° C., % effect relative to AMG-1638, table of Biological Example 1.
Setting [2] is: Table A-8 (additional examples), obtained by methods of Biological Example 1.
Setting [3] is: Tables A-1a to A-7b (structure-property relationship), obtained by methods of Biological Example 1.

T1 sequence (O14842 whole entry): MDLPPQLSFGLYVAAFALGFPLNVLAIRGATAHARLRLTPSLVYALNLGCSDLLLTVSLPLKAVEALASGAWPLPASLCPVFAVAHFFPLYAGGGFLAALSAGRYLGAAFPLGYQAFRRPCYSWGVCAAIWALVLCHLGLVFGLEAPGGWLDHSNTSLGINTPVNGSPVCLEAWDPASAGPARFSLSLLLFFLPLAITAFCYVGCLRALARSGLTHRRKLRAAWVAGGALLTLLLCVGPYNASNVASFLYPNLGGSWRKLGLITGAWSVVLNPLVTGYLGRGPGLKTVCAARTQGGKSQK

Take `COc1ccc(C(=O)N(CC(C)(C)CCn2cc(COCCOCCOCC(=O)NCCN(CCC(=O)NCCN)CCC(=O)NCCN)nn2)c2cccc(C)n2)c(N2CCC(COc3cc([C@@H](CC(=O)O)C4CC4)ccn3)CC2)c1` [Example 159]: the EC50 (in general, the concentration at which the effect is half-maximal) by setting is: under setting [1], above 6000 nM; under setting [2], above 6000 nM.
Regarding `COc1ccc(C(=O)N(CC(C)(C)CCn2cc(COCCOCCOCCOCCOCC(=O)NCCN(CCC(=O)NCCN)CCC(=O)NCCN)nn2)c2cccc(C)n2)c(N2CCC(COc3cc([C@@H](CC(=O)O)C4CC4)ccn3)CC2)c1` [Example 161], the EC50 reads like this: under setting [1], 2200 nM; under setting [2], 2200 nM.
Turning to `COc1ccc(C(=O)N(CC(C)(C)CCn2cc(COCCOCCOCC(=O)NCC[N+](C)(CCC(=O)NCCN)CCC(=O)NCCN)nn2)c2cccc(C)n2)c(N2CCC(COc3cc([C@@H](CC(=O)O)C4CC4)ccn3)CC2)c1` [Example 162], the EC50 was 1250 nM under setting [1] and 1250 nM under setting [2].
Take `COc1ccc(C(=O)N(CC(C)(C)CCn2cc(COCCOCCOCCOCC(=O)NCC[N+](C)(CCC(=O)NCCN)CCC(=O)NCCN)nn2)c2cccc(C)n2)c(N2CCC(COc3cc(C(CC(=O)O)C4CC4)ccn3)CC2)c1` (centres unmarked) [Example 163]: the EC50 is above 5000 nM under setting [1] and above 5000 nM under setting [2].
As for `COc1ccc(C(=O)N(CC(C)(C)CCn2cc(COCCOCCOCCOCCOCC(=O)NCC[N+](C)(CCC(=O)NCCN)CCC(=O)NCCN)nn2)c2cccc(C)n2)c(N2CCC(COc3cc([C@@H](CC(=O)O)C4CC4)ccn3)CC2)c1` [Example 164], a half-maximal response under setting [1] (EC50) required 1330 nM and the 50% effective concentration (EC50) under setting [2] was 1330 nM.
With `COc1ccc(F)c(-c2ccc(COc3cccc([C@@H](CC(=O)O)C4CC4)c3)cc2CC(C)(C)Cn2cc(COCCOCCOCC(=O)NCCN(CCC(=O)NCCN)CCC(=O)NCCN)nn2)c1` [Example 165], the EC50 under setting [1] was above 10000 nM and the EC50 under setting [2] was above 10000 nM.
Compound `COc1ccc(F)c(-c2ccc(COc3cccc([C@@H](CC(=O)O)C4CC4)c3)cc2CC(C)(C)Cn2cc(COCCOCCOCCOCC(=O)NCCN(CCC(=O)NCCN)CCC(=O)NCCN)nn2)c1` [Example 166] registered an EC50 under setting [1] above 10000 nM and an EC50 under setting [2] above 10000 nM.
`COc1ccc(F)c(-c2ccc(COc3cccc([C@@H](CC(=O)O)C4CC4)c3)cc2CC(C)(C)Cn2cc(COCCOCCOCCOCCOCC(=O)NCCN(CCC(=O)NCCN)CCC(=O)NCCN)nn2)c1` [Example 167]: the EC50 reads like this: under setting [1], above 10000 nM; under setting [2], above 10000 nM.
Turning to `COc1ccc(F)c(-c2ccc(COc3cccc([C@@H](CC(=O)O)C4CC4)c3)cc2CC(C)(C)Cn2cc(COCCOCCOCC(=O)NCC[N+](C)(CCC(=O)NCCN)CCC(=O)NCCN)nn2)c1` [Example 168], the EC50 runs as follows: under setting [1], above 10000 nM; under setting [2], above 10000 nM.
Consider `COc1ccc(F)c(-c2ccc(COc3cccc([C@@H](CC(=O)O)C4CC4)c3)cc2CC(C)(C)Cn2cc(COCCOCCOCCOCC(=O)NCC[N+](C)(CCC(=O)NCCN)CCC(=O)NCCN)nn2)c1` [Example 169], for which the EC50 was above 10000 nM under setting [1] and above 10000 nM under setting [2].
In the case of `COc1ccc(F)c(-c2ccc(COc3cccc([C@@H](CC(=O)O)C4CC4)c3)cc2CC(C)(C)Cn2cc(COCCOCCOCCOCCOCC(=O)NCC[N+](C)(CCC(=O)NCCN)CCC(=O)NCCN)nn2)c1` [Example 170], the EC50 runs as follows: under setting [1], 200 nM; under setting [2], above 200 nM.
As to `C[C@H](C(=O)O)[C@H](c1ccc2c(c1)O[C@@H](C1CCN(Cc3cc(-n4cc(COCCOCCOCC(=O)NCCN(CCC(=O)NCCN)CCC(=O)NCCN)nn4)ccc3OC(F)(F)F)CC1)CC2)C1CC1` [Example 171], the EC50 reads like this: under setting [1], above 10000 nM; under setting [2], above 10000 nM.
`C[C@H](C(=O)O)[C@H](c1ccc2c(c1)O[C@@H](C1CCN(Cc3cc(-n4cc(COCCOCCOCCOCC(=O)NCCN(CCC(=O)NCCN)CCC(=O)NCCN)nn4)ccc3OC(F)(F)F)CC1)CC2)C1CC1` [Example 172]: the half-maximal effective concentration (EC50) reads like this: under setting [1], 5240 nM; under setting [2], 5240 nM.
The compound `C[C@H](C(=O)O)[C@H](c1ccc2c(c1)O[C@@H](C1CCN(Cc3cc(-n4cc(COCCOCCOCCOCCOCC(=O)NCCN(CCC(=O)NCCN)CCC(=O)NCCN)nn4)ccc3OC(F)(F)F)CC1)CC2)C1CC1` [Example 173] yielded an EC50 under setting [1] above 10000 nM and an EC50 under setting [2] above 10000 nM.
Regarding `C[C@H](C(=O)O)[C@H](c1ccc2c(c1)O[C@@H](C1CCN(Cc3cc(-n4cc(COCCOCCOCC(=O)NCC[N+](C)(CCC(=O)NCCN)CCC(=O)NCCN)nn4)ccc3OC(F)(F)F)CC1)CC2)C1CC1` [Example 174], the EC50 reads like this: under setting [1], above 10000 nM; under setting [2], above 10000 nM.
Regarding `C[C@H](C(=O)O)[C@H](c1ccc2c(c1)O[C@@H](C1CCN(Cc3cc(-n4cc(COCCOCCOCCOCC(=O)NCC[N+](C)(CCC(=O)NCCN)CCC(=O)NCCN)nn4)ccc3OC(F)(F)F)CC1)CC2)C1CC1` [Example 175], the EC50 is, setting by setting: under setting [1], above 10000 nM; under setting [2], above 10000 nM.
In the case of `C[C@H](C(=O)O)[C@H](c1ccc2c(c1)O[C@@H](C1CCN(Cc3cc(-n4cc(COCCOCCOCCOCCOCC(=O)NCC[N+](C)(CCC(=O)NCCN)CCC(=O)NCCN)nn4)ccc3OC(F)(F)F)CC1)CC2)C1CC1` [Example 176], the EC50 was above 10000 nM under setting [1] and above 10000 nM under setting [2].
`COc1ccc(C(=O)N(CC(C)(C)CCn2cc(CCCCCCCCCCCCCCC(=O)NCC[N+](C)(CCC(=O)NCCN)CCC(=O)NCCN)nn2)c2cccc(C)n2)c(N2CCC(c3cc4ccc([C@@H](CC(=O)O)C5CC5)cc4o3)CC2)c1` [Example 177] displayed a concentration for a half-maximal effect (EC50) under setting [1] of 0.08 nM. This counts as picomolar.
`COc1ccc(C(=O)N(CC(C)(C)CCn2cc(COCCOCCOCCOCCOCC(=O)NCC[N+](C)(CCC(=O)NCCN)CCC(=O)NCCN)nn2)c2cccc(C)n2)c(N2CCC(c3cc4ccc([C@@H](CC(=O)O)C5CC5)cc4o3)CC2)c1` [Example 178] yielded an EC50 under setting [1] of 2030 nM.
For `COc1ccc(F)c(-n2nnc(COc3cccc([C@@H](CC(=O)O)C4CC4)c3)c2CC(C)(C)Cn2cc(CCCCCCCCCCCCCCCC(=O)NCCN(CCC(=O)NCCN)CCC(=O)NCCN)nn2)c1` [Example 179], under setting [1], the EC50 turned out to be 50 nM. This EC50 is about 41-fold lower than that of the compound before.
Consider `COc1ccc(F)c(-n2nnc(COc3cccc([C@@H](CC(=O)O)C4CC4)c3)c2CC(C)(C)Cn2cc(COCCOCCOCCOCCOCC(=O)NCCN(CCC(=O)NCCN)CCC(=O)NCCN)nn2)c1` [Example 180], for which the EC50 under setting [1] was above 10000 nM.
The compound `COc1ccc(F)c(-n2nnc(COc3cccc([C@@H](CC(=O)O)C4CC4)c3)c2CC(C)(C)Cn2cc(CCCCCCCCCCCCCCCC(=O)NCC[N+](C)(CCC(=O)NCCN)CCC(=O)NCCN)nn2)c1` [Example 181] had a 50% effective concentration (EC50) under setting [1] of 16.1 nM. That is a double-digit nanomolar value.
For the compound `COc1ccc(F)c(-n2nnc(COc3cccc([C@@H](CC(=O)O)C4CC4)c3)c2CC(C)(C)Cn2cc(COCCOCCOCCOCCOCC(=O)NCC[N+](C)(CCC(=O)NCCN)CCC(=O)NCCN)nn2)c1` [Example 182], the EC50 under setting [1] is above 10000 nM.
For `C[C@H](C(=O)O)[C@H](c1ccc2c(c1)O[C@@H](C1CCN(Cc3cc(-n4cc(CCCCCCCCCCCCCCCC(=O)NCCN(CCC(=O)NCCN)CCC(=O)NCCN)nn4)ccc3OC(F)(F)F)CC1)CC2)C1CC1` [Example 185], the EC50 by setting is: under setting [1], 0.05 nM; under setting [2], 0.05 nM; under setting [3], 0.05 nM.
Consider `C[C@H](C(=O)O)[C@H](c1ccc2c(c1)O[C@@H](C1CCN(Cc3cc(-n4cc(CCCCCCCCCCCCCCCC(=O)NCC[N+](C)(CCC(=O)NCCN)CCC(=O)NCCN)nn4)ccc3OC(F)(F)F)CC1)CC2)C1CC1` [Example 186], for which the EC50 is, setting by setting: under setting [1], 0.03 nM; under setting [2], 0.05 nM; under setting [3], 0.05 nM.
For the compound `COc1ccc(F)c(-c2ccc(COc3cccc([C@@H](CC(=O)O)C4CC4)c3)cc2CC(C)(C)Cn2cc(CCCCCCCCCCCCCCCC(=O)NCCN(CCC(=O)NCCN)CCC(=O)NCCN)nn2)c1` [Example 187], the EC50 was found to be 1.34 nM under setting [1], 1.34 nM under setting [2] and 1.34 nM under setting [3].
With `COc1ccc(F)c(-c2ccc(COc3cccc([C@@H](CC(=O)O)C4CC4)c3)cc2CC(C)(C)Cn2cc(CCCCCCCCCCCCCCCC(=O)NCC[N+](C)(CCC(=O)NCCN)CCC(=O)NCCN)nn2)c1` [Example 188], the 50% effective concentration (EC50) came out at 1.53 nM under setting [1], 1.53 nM under setting [2] and 1.53 nM under setting [3].
`COc1ccc(C(=O)N(CC(C)(C)CCCCCCn2cc(CCCCCCCCCCCCCC(=O)NCCN(CCC(=O)NCCN)CCC(=O)NCCN)nn2)c2cccc(C)n2)c(N2CCC(COc3cc([C@@H](CC(=O)O)C4CC4)ccn3)CC2)c1` [Example 189]: the EC50 is, setting by setting: under setting [1], 0.05 nM; under setting [3], 0.05 nM.
In the case of `COc1ccc(C(=O)N(CC(C)(C)CCCCCCn2cc(CCCCCCCCCCCCCC(=O)NCC[N+](C)(CCC(=O)NCCN)CCC(=O)NCCN)nn2)c2cccc(C)n2)c(N2CCC(COc3cc([C@@H](CC(=O)O)C4CC4)ccn3)CC2)c1` [Example 190], the EC50 turned out to be 0.05 nM under setting [1] and 0.05 nM under setting [3].
Take `COc1ccc(F)c(-c2ccc(COc3cccc([C@@H](CC(=O)O)C4CC4)c3)cc2CC(C)(C)Cn2cc(CCCCCCCCCC(=O)NCCN(CCC(=O)NCCN)CCC(=O)NCCN)nn2)c1` [Example 191]: the EC50 under setting [1] amounted to 204 nM, the EC50 under setting [2] was 209 nM and the 50% effective concentration (EC50) under setting [3] turned out to be 204 nM.
Take `COc1ccc(F)c(-c2ccc(COc3cccc([C@@H](CC(=O)O)C4CC4)c3)cc2CC(C)(C)Cn2cc(CCCCCCCCCC(=O)NCC[N+](C)(CCC(=O)NCCN)CCC(=O)NCCN)nn2)c1` [Example 192]: the concentration giving a half-maximal response (EC50) runs as follows: under setting [1], 250 nM; under setting [2], 251 nM; under setting [3], 250 nM.
For the compound `C[C@H](C(=O)O)[C@H](c1ccc2c(c1)O[C@@H](C1CCN(Cc3cc(-n4cc(CCCCCCCCCC(=O)NCCN(CCC(=O)NCCN)CCC(=O)NCCN)nn4)ccc3OC(F)(F)F)CC1)CC2)C1CC1` [Example 193], the EC50 runs as follows: under setting [1], 413 nM; under setting [2], 413 nM; under setting [3], 413 nM.

The values are drawn from patent publication US20250223281A1, “ANTIDIABETIC COMPOUNDS AND COMPOSITIONS” (REZUBIO PHARMACEUTICALS CO., LTD, priority 2022, published 2025).
